Measured values from patent publication US20260209219A1, “SUBSTITUTED TETRAHYDROPYRROLO-PYRIDINONE COMPOUNDS AND THEIR USE IN TREATING MEDICAL CONDITIONS” (Karuna Therapeutics, Inc., priority 2022, published 2026).

Tests used:
[1] = target: T1, human M4 receptor (Homo sapiens, UniProt P08173); experiment: M4 GTPγS PAM assay; type: biochemical; conditions: membranes of CHO-K1 cells stably expressing human M4; EC20 acetylcholine 40 nM
T1 construct: expressed in transfected cells; host or cells: CHO-K1 cells (membrane preparation)
T1 sequence (P08173 1-479): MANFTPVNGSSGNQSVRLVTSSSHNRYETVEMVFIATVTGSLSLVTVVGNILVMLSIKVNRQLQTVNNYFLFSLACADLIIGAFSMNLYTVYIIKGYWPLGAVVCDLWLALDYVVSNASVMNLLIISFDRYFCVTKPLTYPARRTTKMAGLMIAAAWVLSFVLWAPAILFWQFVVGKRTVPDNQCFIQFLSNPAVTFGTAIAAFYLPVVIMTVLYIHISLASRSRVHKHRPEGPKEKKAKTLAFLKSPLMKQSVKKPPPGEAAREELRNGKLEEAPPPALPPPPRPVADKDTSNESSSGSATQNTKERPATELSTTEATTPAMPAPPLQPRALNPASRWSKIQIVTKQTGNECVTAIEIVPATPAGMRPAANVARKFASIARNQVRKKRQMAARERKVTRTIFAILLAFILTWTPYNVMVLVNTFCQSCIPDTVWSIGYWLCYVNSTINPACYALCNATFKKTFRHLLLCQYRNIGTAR
Procedure: The M4 GTPγS PAM method was used. Membranes were prepared for GTPgS binding assays from CHO-K1 cells stably expressing human M4 receptor. Briefly, cells were grown in 5-layer cell culture flasks. Cells were washed with 50 mL of PBS and then dissociated with 0.05% trypsin. Dissociated cells were then collected by centrifugation at 650×g for 8 minutes at 4° C. Pellets were washed again in PBS by centrifugation and resuspended in 30 mL of 20 mM HEPES, 10 mM EDTA, pH 7.4. After sitting on ice for 30 min, membranes were collected by centrifugation at 50000×g for 15′ at 4° C., resuspended in 30 mL of 20 mM HEPES, 0.1 mM EDTA, pH 7.4 and collected again by centrifugation. Pellets were then washed twice by centrifugation in 30 mL of 20 mM HEPES, pH 7.4, and stored at −80° C. until the day of the assay. On the day of the assay, pellets were thawed on ice and resuspended in 1 mL of 20 mM HEPES, pH 7.4, 10 mM MgCl2, 100 mM NaCl using dounce homogenization. Membrane protein concentration is determined by BCA protein assay (Promega, Madison, WI) according to Promega guidelines.
On the day of the assay, serial dilutions of test PAM compounds were brought up in assay buffer (20 mM HEPES, 10 mM MgCl2, 100 mM NaCl) at 4× final assay concentration. […] of membrane homogenates (containing […] of membrane protein) were prepared in assay buffer supplemented with GDP at 4× final assay concentration (final assay concentration of GDP is 5 μM for M2 and 0.1 μM for M4) and dispensed into 96 well polypropylene, U-bottom Greiner plates. […] of vehicle or test PAM compound at 4× of final assay concentration diluted in the assay buffer were added to membrane and plates are incubated for 10-15 minutes at room temperature with gentle shaking. Then, […] of EC20 acetylcholine in assay buffer at 4× final assay concentration was added to assay plates (EC20 final assay concentrations was 40 nM for human M4).
Plates were then incubated, with shaking, for an additional 10-15 minutes. 25 mL of 0.4 nM ^35S-GTP (Perkin Elmer, Waltham, MA) in assay buffer was added to assay mixtures. The binding reaction is left on the shaker for 1 hour at room temperature. Membranes in assay reactions were then transferred to GF/C filter plates (Unifilter, Perkin Elmer) and washed three times using a FilterMate Harvester (Perkin Elmer) with cold assay buffer containing no GDP. Filter plates were then dried at 40° C. overnight followed by the addition of […] of Beta Plate Scintillation liquid. Plates are top and bottom sealed before being read on TopCount scintillation counter (Perkin Elmer, Waltham, MA).

[2] = target: T2, hM4 receptors (Homo sapiens, UniProt P08173); experiment: Human M4 PAM pERK assay; type: cell-based; conditions: CHO cells expressing hM4; with EC20 of acetylcholine (10 nM final)
T2 construct: expressed in transfected cells; host or cells: CHO cells
T2 sequence (P08173 1-479): T1 sequence (P08173 1-479)
Procedure: (§1) Chinese hamster ovary (CHO) cells expressing either hM4 or rM4 receptors were frozen in assay ready vials (5×10^6 cells/vial) after bulking-up in culture. The day before an assay, vial(s) were thawed and cells seeded in 384 well white proxiplates at 1000/well for hM4 cells and at 2000/well for rM4 cells, in 10 μL of growth media (Hams/F12 with glutamax and 10% FCS) and incubated overnight at 37° C./5% CO2.
(§2) On the following morning, the growth media was removed by ‘flicking out’ over a bin, patting the inverted plate onto tissue, and then replacing with 10 μL of wash media (Hams/F12 with glutamax and 8 mM HEPES, NB: serum free). Then, the wash media was removed in the same way and replaced with 8 μL/well of the serum free media. Plates were then re-incubated for a further 4 hours at 37° C./5% CO2.
(§3) Compounds for testing were solubilized to 10 mM in DMSO and compound addition plates, consisting of ten-point concentration response curves (CRC) in duplicate points (10 μM top concentration, ½ log dilution series), were prepared by acoustic dispensing and the compound management group.
(§4) After the 4-hour incubation in serum free media, a 4 μL aliquot of the 3× compound solution containing an EC20 of acetylcholine (10 nM final concentration) was added to the cell plate using a 384 well plate to plate transfer. Then, the plate lid was replaced, and the cells incubated for 5 mins at 37° C./5% CO2. Following this final incubation, all cellular processes were stopped by the addition of 4 μL/well of lysis and blocking buffer and plates were incubated for 30 minutes at RT on an orbital shaker (gentle setting). Then, a final addition of 4 μL/well of antibody detection mix, containing both the Europium-Cryptate (donor) and d2 (acceptor) tagged detection components, was added followed by a further 2-hour incubation at RT, and then the plate was read using a TR-FRET (time resolved fluorescence resonance energy transfer) based protocol.

[3] = target: T3, rM4 receptors (Rattus norvegicus, UniProt P08485); experiment: Rat M4 PAM pERK assay; type: cell-based; conditions: CHO cells expressing rM4; with EC20 of acetylcholine (10 nM final)
T3 construct: expressed in transfected cells; host or cells: CHO cells
T3 sequence (P08485 1-478): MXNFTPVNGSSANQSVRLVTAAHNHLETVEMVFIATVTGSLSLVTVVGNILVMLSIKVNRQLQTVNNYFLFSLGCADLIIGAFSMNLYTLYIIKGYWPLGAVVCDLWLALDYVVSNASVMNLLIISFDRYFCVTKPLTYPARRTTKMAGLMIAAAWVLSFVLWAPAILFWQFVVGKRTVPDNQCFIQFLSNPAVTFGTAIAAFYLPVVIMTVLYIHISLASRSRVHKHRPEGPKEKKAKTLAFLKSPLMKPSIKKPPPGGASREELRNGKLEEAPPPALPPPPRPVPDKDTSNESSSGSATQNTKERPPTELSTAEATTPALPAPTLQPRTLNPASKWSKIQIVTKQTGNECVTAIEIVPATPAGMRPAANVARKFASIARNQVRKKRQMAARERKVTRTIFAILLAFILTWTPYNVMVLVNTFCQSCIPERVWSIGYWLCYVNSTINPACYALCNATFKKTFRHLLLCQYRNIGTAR
Procedure: as §1, §2, §3, §4

Row | SMILES | EC50 [1] [nM] | EC50 [2] [nM] | EC50 [3] [nM]
1 | Cc1cc(=O)n(C)c2c1CN(C(=O)CC1CC1c1cccc(C3COC3)c1)C2 (single isomer, unassigned) [Compound I-13] | > 2000 | > 2000 | > 2000
2 | Cc1cc(=O)n(C)c2c1CN(C(=O)CC1CC1c1ccc(C3COC3)cc1)C2 (centres unmarked) [Compound I-15] |  | 100 to 500 | 500 to 2000
3 | Cc1cc(=O)n(C)c2c1CN(C(=O)CC1CC1c1ccc(C(F)(F)F)nc1)C2 (single isomer, unassigned) [Compound I-4] | > 2000 | > 2000 | > 2000
4 | Cc1cc(=O)n(C)c2c1CN(C(=O)CC1CC1)C2 [Compound I-10] | 500 to 2000 | 500 to 2000 | > 2000
5 | Cc1cc(=O)n(C)c2c1CN(C(=O)CC1CC1c1cccc(C3COC3)c1)C2 (centres unmarked) [Compound I-12] | > 2000 | 100 to 500 | 500 to 2000
6 | Cc1cc(=O)n(C)c2c1CN(C(=O)CC1CC1c1ccc(C(F)(F)F)nc1)C2 (single isomer, unassigned) [Compound I-5] | 500 to 2000 | 100 to 500 | < 100
7 | Cc1cc(=O)n(C)c2c1CN(C(=O)CC1CC1c1ccnc(C(F)(F)F)c1)C2 (single isomer, unassigned) [Compound I-1, 1,4-Dimethyl-6-[trans-(2-(2-(2-(trifluoromethyl)pyridin-4-yl)cyclopropyl)]acetyl)-1,5,6,7-tetrahydro-2H-pyrrolo[3,4-b]pyridin-2-one] |  | > 2000 | 
8 | Cc1cc(=O)n(C)c2c1CN(C(=O)CC1CC1c1ccc(C(F)(F)F)cc1)C2 (single isomer, unassigned) [Compound I-6] | > 2000 | > 2000 | > 2000
9 | COCCc1ccc(C2CC2CC(=O)N2Cc3c(C)cc(=O)n(C)c3C2)cc1 (centres unmarked) [Compound I-11] |  | 100 to 500 | 500 to 2000
10 | Cc1cc(=O)n(C)c2c1CN(C(=O)CC1CC1c1ccc(S(=O)(=O)C(F)(F)F)cc1)C2 (single isomer, unassigned) [Compound I-8] |  | > 2000 | > 2000
11 | Cc1cc(=O)n(C)c2c1CN(C(=O)CC1CC1c1ccc(S(=O)(=O)C(F)(F)F)cc1)C2 (single isomer, unassigned) [Compound I-9] |  | 100 to 500 | 100 to 500
12 | Cc1cc(=O)n(C)c2c1CN(C(=O)CC1CC1c1ccnc(C(F)(F)F)c1)C2 (single isomer, unassigned) [Compound I-2] |  | < 100 | 500 to 2000
13 | Cc1cc(=O)n(C)c2c1CN(C(=O)CC1CC1c1cccc(C3COC3)c1)C2 (single isomer, unassigned) [Compound I-14] |  | 100 to 500 | 100 to 500

Other lines, results leading:

Row | EC50 [1] [nM] | EC50 [2] [nM] | EC50 [3] [nM] | SMILES
14 | < 100 | < 100 | < 100 | Cc1c2c(n(C)c(=O)c1Cl)CN(C(=O)CC1CC1c1cc(F)cc(F)c1)C2 (single isomer, unassigned) [Compound I-36]
15 |  | 100 to 500 | 100 to 500 | Cc1c2c(n(C)c(=O)c1C)CN(C(=O)CC1CC1c1ccc(C(F)(F)F)cc1)C2 (single isomer, unassigned) [Compound I-20]
16 |  | > 2000 | > 2000 | Cc1cc(=O)n(C)c2c1CN(C(=O)CC1CC1c1ccc(C3COC3)cc1)C2 (single isomer, unassigned) [Compound I-16]
17 | < 100 | 100 to 500 | 100 to 500 | COc1c2c(n(C)c(=O)c1C)CN(C(=O)CC1CC1c1ccc(C(F)(F)F)cc1)C2 (single isomer, unassigned) [Compound I-29, 4-Methoxy-1,3-dimethyl-6-([trans-2-(2-(4-(trifluoromethyl)phenyl)cyclopropyl)]acetyl)-1,5,6,7-tetrahydro-2H-pyrrolo[3,4-b]pyridin-2-one]
18 | 500 to 2000 | > 2000 | > 2000 | Cc1c2c(n(C)c(=O)c1C)CN(C(=O)CC1CC1c1cc(F)cc(F)c1)C2 (single isomer, unassigned) [Compound I-22]
19 | < 100 | < 100 | < 100 | Cc1c2c(n(C)c(=O)c1C)CN(C(=O)CC1CC1c1cc(F)cc(F)c1)C2 (single isomer, unassigned) [Compound I-23]
20 | > 2000 | > 2000 | 500 to 2000 | COc1c2c(n(C)c(=O)c1C)CN(C(=O)CC1CC1c1ccc(C(F)(F)F)cc1)C2 (centres unmarked) [Compound I-30]
21 | 100 to 500 | 500 to 2000 | > 2000 | Cc1c2c(n(C)c(=O)c1F)CN(C(=O)CC1CC1c1ccc(C(F)(F)F)cc1)C2 (single isomer, unassigned) [Compound I-25, 3-Fluoro-1,4-dimethyl-6-([trans-2-(2-(4-(trifluoromethyl)phenyl)cyclopropyl)]acetyl)-1,5,6,7-tetrahydro-2/I-pyrrolo[3,4-b]pyridin-2-one]
22 |  | < 100 | < 100 | Cc1c2c(n(C)c(=O)c1F)CN(C(=O)CC1CC1c1cc(F)cc(F)c1)C2 (single isomer, unassigned) [Compound I-28]
23 |  | < 100 | 100 to 500 | Cc1cc(=O)n(C)c2c1CN(C(=O)CC1CC1c1ccc(C3COC3)cc1)C2 (single isomer, unassigned) [Compound I-17]
24 |  | > 2000 | > 2000 | Cc1c2c(n(C)c(=O)c1C)CN(C(=O)CC1CC1c1ccc(C(F)(F)F)cc1)C2 (single isomer, unassigned) [Compound I-19]
